# Results: patent publication US20260317328A1, “SMALL MOLECULES FOR ADOPTIVE T-CELL THERAPY (ACT) THROUGH ACTIVATION OF THE mTOR SIGNALLING PATHWAY, PROCESS FOR PREPARATION THEREOF” (COUNCIL OF SCIENTIFIC & INDUSTRIAL RESEARCH, priority 2023, published 2026)
# What was measured:
# [1] = test system: CD8^+ T cells; assay: Initial small molecule screening: intracellular cytokine staining of CD8+ T cells activated with each small molecule; format: cell-based, mouse
# Description: To select the small molecule capable of inducing IFN-γ production in CD8^+ T cells, […] CD3^+ sorted naïve T cells were activated with each small molecule for 72 hrs followed by an intracellular cytokine staining.
# CD3^+ T cells were isolated from human peripheral blood by density-gradient (Ficoll gradient) centrifugation followed by a negative selection using Dynabeads Untouched Human T Cells Kit, resulting in a typically >90% pure CD3^+ T cell population.
# (§1) Purified naïve CD3^+ T cells were activated either in presence of Comp 19 ([…]) or vehicle (DMSO) with plate-bound anti-CD3 ([…]) and anti-CD28 ([…]) for 72 h in RPMI-1640 medium containing 10% FBS, 50 µM R-ME, 50 U/mL penicillin and […] streptomycin and 100 IUmL^−1 rIL-2.
# (§2) Measurement of cytokine production: To assess IFN-γ and TNF-α secretion by intracellular cytokine staining, cells (0.2×10^6) were treated for 4 hours with restimulation cocktail containing phorbolmyristate acetate (50 ng ml^−1) and ionomycin (500 ng ml^−1), brefeldin A (to block anterograde protein transport). Then cells were stained for surface markers and simultaneously labeled with Live/Dead Yellow Fluorescent Dye for 20 min at 4° C. Next cells were washed with PBS, fixed for 20 min at 4° C. with fixation/permeabilization solution, washed with permeabilization buffer, finally stained for 30 min with anti-IFN-γ and anti-TNF-α mAb in dark at 4° C., washed with PBS and analyzed.
# [2] = test system: CD8^+ T cells; assay: Glucose uptake assay (2NBDG) in activated CD8+ T cells; format: cell-based; details: naïve T cells activated in presence of compound; 2NBDG (FIG. 2A)
# Description: (§3) Distinct T cell states require specific metabolic programs compatible to their functional demands. The transition between various T cell states is accompanied by active rewiring of cellular metabolism and epigenetic landscape. Oxidative phosphorylation is the main biochemical pathway that drives metabolism of naïve T cell. Upon activation, naïve T cells rapidly reprogram their metabolic networks to comply with the demands of robust clonal expansion and epigenetic remodeling. So, TCR activation and co-stimulation initiate a set of signaling cascades that collectively license a T cell to exit quiescence. Stimulation of the TCR promotes signaling through the ERK/MAPK pathways and calcium flux, activation of the PI3K-AKT-mTOR axis which subsequently resulting in T cell activation. This conversion to an activated effector T cell is marked by enhanced glucose uptake, engagement of aerobic glycolysis, increased oxidative phosphorylation. So, we assessed glucose uptake level by activated CD8^+ T cells using fluorescent labeled deoxy-glucose analogue, 2NBDG. […]
# Glucose uptake assay: Glucose uptake by activated T cells was evaluated using fluorescent labeled deoxy-glucose analogue, 2NBDG. […]
# [3] = test system: CD8^+ T cells; assay: Effector cytokine (IFN-γ, TNF-α) production by activated CD8+ T cells; format: cell-based; details: naïve T cells activated in presence of compound (FIG. 2B-E)
# Description: as §3, with “Stimulation of the TCR promotes signaling through the ERK/MAPK pathways and calcium flux, activation of the PI3K-AKT-mTOR axis which subsequently resulting in T cell activation. This conversion to an activated effector T cell is marked by enhanced glucose uptake, engagement of aerobic glycolysis, increased oxidative phosphorylation.” left out
# as §2, with “Then cells were stained for surface markers and simultaneously labeled with Live/Dead Yellow Fluorescent Dye for 20 min at 4° C.” left out
# [4] = test system: mTORC1; assay: mTORC1 activity in CD8+ T cells: pS6 and p4EBP1 levels (flow cytometry, western blot); format: cell-based
# Description: Several transcription factors and signaling pathways coordinately support and regulate the metabolic shifting of naïve T cell after activation. Downstream of co-stimulation and PI3K-AKT signaling, mammalian target of Rapamycin (mTOR) kinase pathway helps in integrating multiple signals, plays a significant role for cell cycle entry and coordinates early anabolic changes that occur upon T cell activation mTOR complex 1 (mTORC1) promote aerobic glycolysis and support effector T cell proliferation, growth, and cytokine production. Translation repressor protein 4E-BP1 inhibits cap-dependent translation by binding to the translation initiation factor eIF4E. Phosphorylation of 4E-BP1 by mTORC1 disrupts this interaction and results in activation of cap-dependent translation. On the contrary, phosphorylation of S6 ribosomal protein correlates with an increase in translation of mRNA transcripts that contain an oligopyrimidine tract in their 5′ untranslated regions. Activation of mTORC1 increases protein translation via direct phosphorylation of 4E-BP1 and p70S6 kinase. Since Comp-19 was proposed as mTORC1 activator, next we sought to check expression level ofpS6 and p4EBP1 level inside CD8^+ T cells activated in presence/absence of Comp-19. […] CD8^+ T cells treated with Comp-19 (FIG. 3A-C).
# as §1
# pS6 Staining: Intracellular phospho ribosomal protein S6 (pS6) were stained using Transcription factor Phospho Buffer set. Single cell suspension was prepared and cells were washed with 1×PBS. […] Finally, cells were washed, dissolved in PBS and analysed by flow cytometry.
# Cell lysates from 4×10^6 cells per condition were prepared in RIPA buffer containing protease inhibitor cocktail. Protein concentrations were determined with a serial dilution standard curve of Bradford assay. […]
# [5] = test system: EL4-OVA tumors; assay: Adoptive transfer of OT1 T cells into mice bearing EL4-OVA tumors; format: in vivo, mouse
# Method: Given the functional fitness of Comp-19 treated CD8^+ T cells in vitro, we, next, sought to determine their antitumor potential upon adoptive transfer into mice bearingEL4-OVA tumors.
# EL-4.OVA tumor cells (1×10^6) or B16-F10 melanoma (0.5×10^6 cells) were injected subcutaneously into the left flank of 7-10 weeks old C57BL/6 mice. After 9 days of tumor establishment, ex vivo activated OT-1 T cells at 0.5×10^6 cells/mouse were adoptively transferred intravenously into tumor-bearing recipients.
# [6] = test system: Human naïve CD8^+ T cells; assay: EC50 for IFNγ production in human naïve CD8+ T cells; format: cell-based; details: 72 hrs, doses 500 pM to 50 μM, N=3 for each dose
# Method: Human naïve CD8^+ T cells were sorted from PBMC and activated in presence of Comp 19 in the different doses (500 pM, 1 nM, 100 nM, 500 nM, 1 μM, 5 μM, 10 μM, 50 μM). After 72 hrs, activated CD8+ T cells were restimulated and stained for IFNγ production. Percent of CD8+ T cell producing IFNγ in the previously mentioned doses of Comp 19 was normalized to a vehicle control (DMSO) treated group. The optimum dosage of Comp 19 for inducing effector cytokine (IFNγ) production from CD8^+ T cells is 10 μM. […] (N=3 for each dose of Comp 19).
# Human peripheral blood mononuclear cells (PBMC) were obtained from fully anonymized whole blood bags (age & sex related information were not provided) collected from healthy volunteer blood donors at NRS Medical College & Hospital, Kolkata, India. […]
# as §2, with “Then cells were stained for surface markers and simultaneously labeled with Live/Dead Yellow Fluorescent Dye for 20 min at 4° C.” left out
# [7] = Lipophilicity assay (n-octanol / phosphate buffer); format: physicochemical; details: pH 7.4, 1-octanol/10 mM sodium phosphate buffer, room temperature; criteria: <0 low, 0-1 moderate, >2 high lipophilicity
# Method: 1.56 g NaH2PO4O·2H2O was dissolved in 0.5 L water in a 1 L beaker. After adjusting pH to 7.4 using NaOH solution, the volume was made up to 1 L. Equal volumes of sodium phosphate buffer (10 mM, pH 7.4) and n-octanol were added to a separation funnel and mixed thoroughly by shaking and inverting the funnel several times. The two layers were allowed to separate for overnight and then dispensed in two separate glass bottles. 10 mM stock solution was prepared in 100% DMSO and stored at 4° C. 495 μL of organic phase (1-octanol) was added to each well of a 2 mL deep well plate, followed by 495 μL of buffer and 10 μL of test substance was added. The plate was incubated for 3 hr at room temperature on a plate shaker at 500 rpm. After incubation, the samples were allowed to equilibrate for 20 min and then centrifuged at 4000 rpm for 30 min for complete phase separation and analysed by LC-UV.
# Log D=Log (area of octanol/area of buffer)
# [8] = Plasma stability assay; format: in vitro ADME; details: human, 37° C., 120 mins
# Method: 1 mM Stock of test compound was prepared from 10 mM initial stock solution of compounds by diluting 10 μL of 10 mM stock with 90 μL of DMSO. Then 10 μL of 1 mM stock was diluted with 90 μL of DMSO to give 100 μM concentration. The frozen plasma was thawed at room temperature and centrifuged at 1400 rpm at 4° C., for 15 minutes. Approximately 90% of the clear supernatant fraction was transferred to a separate tube and was used for the assay. Final working stock of 1 μM was prepared by diluting 3 μL of 100 μM with 297 μL of plasma. Plasma containing the test compound was incubated for 120 mins at 37° C. in shaker with 500 rpm. 50 μL of aliquot of sample at 0, 15, 30, 60 and 120 minutes were precipitated with 150 μL of acetonitrile containing internal standard and centrifuged at 4000 rpm at 4° C. for 20 minutes. 120 μL of supernatant was diluted with 120 μL of water and analyzed by LC-MS/MS.
# [9] = Metabolic stability using human liver microsomes (HLM); format: in vitro ADME; details: pH 7.4, read-out: % QH (Well stirred model)
# Method: 1 mM stock solution of test compound was prepared in DMSO and diluted with Acetonitrile:Water (1:1) to get a 100 μM working concentration. 100 mL of Milli Q water was added to K2HPO4 (1.398 g) and KH2PO4 (0.27 g) to get final pH 7.4 solution of potassium phosphate buffer. […] The above mixture was pre incubated for 15 minutes at 37° C. After pre incubation, 32.5 μL of the mixture was added to 17.5 μL of buffer, this was incubated for 60 minutes at 37° C. [60 min Without Cofactor (NADPH)]. 16.25 μL of the pre incubated mixture and 8.75 μL of cofactor was added to 150 μL of acetonitrile containing internal standard [0 min Sample]. 62 μL of cofactor was added to remaining pre incubation mixture [Incubation mixture]. 25 μL of incubation mixture at 0, 5, 15, 30, 60 min and 60 min without cofactor were precipitated with 150 μL of acetonitrile containing internal standard, vortexed and centrifuged at 4000 rpm at 4° C. for 20 minutes. 120 μL of supernatant was diluted with 120 μL of water and analyzed by LC-MS/MS [sample preparation].
# [10] = 10 μM, 72 hrs, compared to vehicle control/other small molecules treated group (FIG. 1A-B)
# [11] = OT1 T cells (0.5×10^6 cells/mouse) activated in presence of 10 μM ml^−1 compound
# [12] = inhibitory receptor (FIG. 4F,4G)
smiles,measurement,setting,value
"COc1ccc(-c2nc3c(NS(=O)(=O)c4ccc(C)cc4)ncnc3n2C)cc1 [Compound 19, N-(8-(4-methoxyphenyl)-9-methyl-9H-purin-6-yl)-4-methylbenzenesulfonamide]",IFN-γ production from CD8^+ T cells,[1]; [10],highest
same,TNF-α production from CD8^+ T cells,[1]; [10],highest
same,improving effector cytokine production from CD8^+ T cells (ranking among the small molecules),[1]; 72 hrs activation,most promising
same,glucose uptake,[2],promoted glucose uptake
same,IFN-γ production level from CD8^+ T cell,[3],significant increase
same,TNF-α production level from CD8^+ T cell,[3],significant increase
same,mTORC1 activation,[4]; conclusion from pS6 and 4EBP1 results in CD8^+ T cells,potent mTOR-Cl activator
same,4EBP1 (p4EBP1) expression,[4]; downstream substrate of mTORC1 (FIG. 3D),significant high expression
same,pS6 level inside CD8^+ T cells,[4]; flow cytometry and western blot (FIG. 3A-C),marked increase
same,persistence of CD8+Vβ5.1+ OT1 T cells,[5]; FIG. 4B,improved persistence
same,survival of tumor-bearing mice,[5]; [11],markedly enhanced the survival
same,tumor growth control,[5]; [11],could efficiently control tumor growth
same,CD38 expression on CD8+Vβ5.1+ OT1 T cells,[5]; [12],reduced expression
same,PD1 expression on CD8+Vβ5.1+ OT1 T cells,[5]; [12],reduced expression
same,TIM3 expression on CD8+Vβ5.1+ OT1 T cells,[5]; [12],reduced expression
same,number of circulating CD8^+Vβ5.1^+ T cells,"[5]; tumor-bearing host, vs mice that received DMSO treated cells",higher number
same,optimum dosage for inducing effector cytokine (IFNγ) production from CD8^+ T cells,[6],10 µM
same,EC50,"[6]; Homo sapiens, T-cell, normalized to vehicle (DMSO)",4.09 µM
same,logD,[7],0.96
same,"remaining at 2 h, 1 µM",[8],85.8%
same,hepatic extraction ratio,[9],0.0077
"COCCc1ccc(OCC(O)CNC(C)C)cc1 (centres unmarked) [Metroprolol, reference compound]",logD,[7],-0.34
"CCc1ccc(S(=O)(=O)Nc2ncnc3c2nc(-c2ccc(OC)cc2)n3C)cc1 [Compound 22, 4-ethyl-N-(8-(4-methoxyphenyl)-9-methyl-9H-purin-6-yl)benzenesulfonamide]",logD,[7],4.32
same,"remaining at 2 h, 1 µM",[8],3.9%
same,hepatic extraction ratio,[9],0.318
"CC(C)[N+](C)(CCOC(=O)C1c2ccccc2Oc2ccccc21)C(C)C [Propantheline, reference compound]","remaining at 2 h, 1 µM",[8],0.33%
